Measured values as given in article PMC8436411 (ACS Medicinal Chemistry Letters, 2021).
Values after ≈ are worked out from the molar mass of the structure shown. Values joined by “and” are separate entries in the source; they are usually repeats but may differ in a detail not shown here. Equal values may be shown once. Read-outs that look alike come from different tables or passages of the source.

What was measured:
Human topoisomerase IIα = Human topoisomerase IIα (Homo sapiens, UniProt P11388); experiment: Human topoisomerase IIα residual activity; assay type: biochemical; conditions: residual activity at 10 μM compound; mean ± SD, two independent experiments; read-out: Human topoisomerase IIα (%RA)
Sequence of Human topoisomerase IIα (P11388 whole entry): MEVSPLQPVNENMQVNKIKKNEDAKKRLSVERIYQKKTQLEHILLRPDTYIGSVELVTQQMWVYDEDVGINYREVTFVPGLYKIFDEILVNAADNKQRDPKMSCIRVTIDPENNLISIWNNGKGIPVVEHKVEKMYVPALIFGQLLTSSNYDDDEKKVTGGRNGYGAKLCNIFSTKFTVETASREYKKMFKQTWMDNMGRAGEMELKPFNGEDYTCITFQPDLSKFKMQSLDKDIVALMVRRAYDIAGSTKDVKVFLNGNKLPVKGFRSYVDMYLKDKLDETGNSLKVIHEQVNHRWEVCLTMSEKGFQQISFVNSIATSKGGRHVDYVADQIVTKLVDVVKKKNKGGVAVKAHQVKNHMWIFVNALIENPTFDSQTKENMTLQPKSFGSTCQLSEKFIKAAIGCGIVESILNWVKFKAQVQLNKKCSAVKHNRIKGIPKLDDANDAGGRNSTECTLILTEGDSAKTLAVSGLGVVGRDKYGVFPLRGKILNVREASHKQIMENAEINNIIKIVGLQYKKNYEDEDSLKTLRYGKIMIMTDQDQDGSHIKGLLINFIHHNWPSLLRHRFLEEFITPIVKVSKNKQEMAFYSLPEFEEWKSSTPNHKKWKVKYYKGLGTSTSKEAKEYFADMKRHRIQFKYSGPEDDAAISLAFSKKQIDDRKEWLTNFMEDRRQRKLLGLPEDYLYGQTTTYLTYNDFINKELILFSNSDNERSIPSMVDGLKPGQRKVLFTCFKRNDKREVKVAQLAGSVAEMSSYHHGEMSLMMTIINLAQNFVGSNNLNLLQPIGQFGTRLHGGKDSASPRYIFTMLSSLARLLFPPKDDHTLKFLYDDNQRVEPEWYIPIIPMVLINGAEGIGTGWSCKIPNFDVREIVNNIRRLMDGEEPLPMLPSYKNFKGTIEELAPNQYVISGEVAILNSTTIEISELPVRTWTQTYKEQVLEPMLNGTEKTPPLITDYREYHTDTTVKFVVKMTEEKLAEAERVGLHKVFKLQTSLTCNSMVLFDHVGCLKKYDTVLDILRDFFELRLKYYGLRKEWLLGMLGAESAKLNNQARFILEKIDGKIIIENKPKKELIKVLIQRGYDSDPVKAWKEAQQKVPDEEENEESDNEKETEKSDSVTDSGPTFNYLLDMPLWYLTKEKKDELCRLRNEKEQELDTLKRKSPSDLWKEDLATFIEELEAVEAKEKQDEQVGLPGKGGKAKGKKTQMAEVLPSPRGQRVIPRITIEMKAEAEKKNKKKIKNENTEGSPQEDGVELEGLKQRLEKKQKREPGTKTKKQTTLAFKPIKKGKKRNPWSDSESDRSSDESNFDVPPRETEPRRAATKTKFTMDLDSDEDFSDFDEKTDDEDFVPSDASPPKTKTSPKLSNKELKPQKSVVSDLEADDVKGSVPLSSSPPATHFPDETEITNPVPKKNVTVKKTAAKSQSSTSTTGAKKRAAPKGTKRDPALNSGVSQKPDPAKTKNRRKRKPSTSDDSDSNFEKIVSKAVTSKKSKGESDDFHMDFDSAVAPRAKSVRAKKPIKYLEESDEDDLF

[1] = test system: E. coli N43 (CGSC no. 5583); experiment: microbe, parasite or virus in culture; conditions: Escherichia coli
Procedure: (§1) The in vitro antibacterial activity, expressed as minimum inhibitory concentration (MIC), was determined against broad spectrum of bacteria, including Gram-positive (Staphylococcus aureus, methicillin-resistant Staphylococcus aureus, Streptococcus agalactiae, and Enterococcus faecalis) and Gram-negative strains (Escherichia coli, Salmonella alachua, Pseudomonas aeruginosa, and Klebsiella pneumoniae), enriched with various MRSA strains resistant to various antibiotics as well as E. coli strains with increased membrane permeability and lack of efflux pump, as well. […]
(§2) The minimum inhibitory concentrations (MICs) were determined using the broth micro-dilution method in 96-well plate format according to the Clinical and Laboratory Standards Institute […]
(§3) guidelines8 and European Committee on Antimicrobial Susceptibility Testing recommendations9. The bacterial suspension of the specific bacterial strain equivalent to the 0.5 McFarland turbidity standard was diluted with cation-adapted Mueller Hinton broth with TES (Thermo Fisher Scientific) to obtain a […]
(§4) The compounds dissolved in DMSO and inoculum were mixed together and incubated for 20 h at 35 °C.

E. coli D22 = experiment: microbe, parasite or virus in culture; conditions: Escherichia coli
Procedure: as §1, §2, §3, §4

Klebsiella pneumoniae = experiment: microbe, parasite or virus in culture
Procedure: as §1, §2, §3, §4

MRSA (QA-11.7) = experiment: microbe, parasite or virus in culture; conditions: Staphylococcus aureus, read-out: MIC MRSA (QA-11.7)
Procedure: as §1, §2, §3, §4

[2] = test system: Pseudomonas aeruginosa RDK 184 (DSM 939); experiment: microbe, parasite or virus in culture
Procedure: as §1, §2, §3, §4

MRSA (QA-12.1) = experiment: microbe, parasite or virus in culture; conditions: Staphylococcus aureus, read-out: MIC MRSA (QA-12.1)
Procedure: as §1, §2, §3, §4

E. coli (ATCC 25922) = experiment: microbe, parasite or virus in culture; conditions: Escherichia coli, ATCC25922, read-out: MIC E. coli (ATCC 25922)
Procedure: as §1, §2, §3, §4

S. aureus (ATCC 29213) = experiment: microbe, parasite or virus in culture; conditions: Staphylococcus aureus, ATCC29213, read-out: MIC S. aureus (ATCC 29213)
Procedure: as §1, §2, §3, §4

[3] = test system: Streptococcus agalactiae RDK 047 (QA-990/02); experiment: microbe, parasite or virus in culture
Procedure: as §1, §2, §3, §4

[4] = test system: Salmonella alachua RDK 030c (QA-1482/04); experiment: microbe, parasite or virus in culture
Procedure: as §1, §2, §3, §4

[5] = test system: Enterococcus faecalis DRK 057 (ATCC 29212); experiment: microbe, parasite or virus in culture
Procedure: as §1, §2, §3, §4

S. aureus DNA gyrase = target: T1, S. aureus DNA gyrase (Staphylococcus aureus, UniProt P20831); experiment: DNA gyrase supercoiling inhibition assay (S. aureus); assay type: biochemical; conditions: mean of two independent measurements ± SD
T1 construct: purchased Inspiralis (Norwich, UK)
T1 sequence (P20831 whole entry, looked up): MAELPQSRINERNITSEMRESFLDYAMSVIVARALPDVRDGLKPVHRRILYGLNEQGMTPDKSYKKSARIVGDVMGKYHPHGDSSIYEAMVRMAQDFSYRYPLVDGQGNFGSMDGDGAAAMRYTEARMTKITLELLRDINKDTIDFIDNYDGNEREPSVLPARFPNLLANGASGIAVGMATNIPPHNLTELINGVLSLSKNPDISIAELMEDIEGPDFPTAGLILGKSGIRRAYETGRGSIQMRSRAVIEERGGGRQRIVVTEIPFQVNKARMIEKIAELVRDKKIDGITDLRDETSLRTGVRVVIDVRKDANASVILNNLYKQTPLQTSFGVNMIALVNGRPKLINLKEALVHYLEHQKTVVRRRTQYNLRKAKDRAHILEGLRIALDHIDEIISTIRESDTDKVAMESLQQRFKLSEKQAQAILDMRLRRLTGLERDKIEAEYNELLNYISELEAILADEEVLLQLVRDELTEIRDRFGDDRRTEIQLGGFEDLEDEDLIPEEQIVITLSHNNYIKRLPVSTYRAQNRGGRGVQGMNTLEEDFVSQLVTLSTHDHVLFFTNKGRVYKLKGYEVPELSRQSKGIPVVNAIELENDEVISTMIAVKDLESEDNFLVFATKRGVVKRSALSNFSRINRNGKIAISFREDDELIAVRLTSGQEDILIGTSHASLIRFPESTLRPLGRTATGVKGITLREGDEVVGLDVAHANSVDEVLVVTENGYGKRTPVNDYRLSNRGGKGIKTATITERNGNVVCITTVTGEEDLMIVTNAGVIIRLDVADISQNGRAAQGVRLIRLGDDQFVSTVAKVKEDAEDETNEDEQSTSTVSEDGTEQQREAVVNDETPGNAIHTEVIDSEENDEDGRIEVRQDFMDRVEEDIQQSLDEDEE
Procedure: We synthesized and biologically evaluated ten new compounds. We determined their inhibitory activity, expressed as IC50 values, on both Gram-positive S. aureus and Gram-negative E. coli bacterial enzymes (DNA gyrase and topo IV), respectively. The in vitro antibacterial activity, expressed as minimum inhibitory concentration (MIC), was determined against broad spectrum of bacteria, including Gram-positive (Staphylococcus aureus, methicillin-resistant Staphylococcus aureus, Streptococcus agalactiae, and Enterococcus faecalis) and Gram-negative strains (Escherichia coli, Salmonella alachua, Pseudomonas aeruginosa, and Klebsiella pneumoniae), enriched with various MRSA strains resistant to various antibiotics as well as E. coli strains with increased membrane permeability and lack of efflux pump, as well. Furthermore, the selectivity of compounds for bacterial enzyme compared to the orthologous human topoisomerase IIα was also considered. The in vitro safety profile was determined by cytotoxicity assessment on human umbilical vein endothelial cell lines (HUVEC) and HepG2 liver cancer cell lines.
Determination of DNA gyrase and topoisomerase IV inhibitory activities
To determine the IC50 values of the compounds, a Gyrase Supercoiling High Throughput Plate assay kit and a TopoIV Relaxation High Throughput Plate assay kit, commercially available from Inspiralis (Norwich, UK), were used for S. aureus and E. coli. The assays were performed on black streptavidin-coated 96-well microtiter plates (Thermo Scientific Pierce, Norwich, UK) and the wells were first […]
BSA and 0.05% [v/v] Tween-20). Biotinylated oligonucleotide diluted with the wash buffer was then immobilized in each well and the excess was removed with the wash buffer. 1.5 U of the enzyme S. aureus or E. coli DNA gyrase (topoIV) was incubated together with 0.75 μg of relaxed (supercoiled) pNO1 plasmid as substrate in the presence of 3 μl inhibitor solution in 10% DMSO and 0.008% Tween-20 at 37°C for 30 min in a final reaction volume of 30 μl in the assay buffer (S. aureus DNA gyrase: 40 mM HEPES.KOH (pH 7.6), 10 mM magnesium acetate, 10 mM DTT, 2 mM ATP, 500 mM potassium glutamate and 0.05 mg/ml albumin; E. coli DNA gyrase: 35 mM Tris.HCl (pH 7.5), 24 […]
mg/ml albumin; S. aureus topo IV: 50 mM Tris.HCl (7.5), 5 mM MgCl 2, 5 mM DTT, 1.5 mM ATP, 350 mM potassium glutamate and 0.05 mg/ml albumin; E. coli topo IV: 40 mM HEPES.KOH (pH 7.6), 100 mM potassium glutamate, 10 mM magnesium acetate, 10 mM DTT, 1 mM ATP and 50 μg/ml albumin). The reaction was stopped by adding the TF buffer (50 mM NaOAc (pH 4.7), 50 mM NaCl and 50 mM MgCl2) to allow triplex formation (biotin oligonucleotide plasmid) for another 30 min. Finally, the unbound plasmid was washed off using the TF buffer and the Promega Diamond dye was added to T10 buffer (10 mM Tris-HCl (pH 8.0), 1 mM EDTA) solution. After 15 min the solution […]
Two inhibitor concentrations of 100 and 1 μM were used for pre-screening. The IC 50 values […]
(IC50) was calculated by nonlinear regression-based fitting of the inhibition curves using the log [inhibitor] versus response-variable slope (four parameters) – symmetrical equation, in GraphPad Prism 6.0 software (GraphPad Software, CA, USA). The IC50 value represents the average of two independent measurements.
The minimum inhibitory concentrations (MICs) were determined using the broth micro-dilution method in 96-well plate format according to the Clinical and Laboratory Standards Institute

[6] = read-out: MIC E. coli N43 (CGSC no. 5583)
[7] = read-out: MIC E. coli N43 (CGSC# 5583)
[8] = read-out: MIC Klebsiella pneumoniae
[9] = DSM939, read-out: MIC P. aeruginosa RDK 184 (DSM 939)
[10] = DSM939, read-out: MIC Pseudomonas aeruginosa RDK 184 (DSM 939)
[11] = read-out: MIC S. agalactiae RDK 047 (QA-990/02)
[12] = read-out: MIC Streptococcus agalactiae RDK 047 (QA-990/02)
[13] = read-out: MIC S. alachua RDK 030c (QA-1482/04)
[14] = read-out: MIC Salmonella alachua RDK 030c (QA-1482/04)
[15] = ATCC29212, read-out: MIC E. faecalis DRK 057 (ATCC 29212)
[16] = ATCC29212, read-out: MIC Enterococcus faecalis DRK 057 (ATCC 29212)

Row | Compound | remaining activity at 10 µM (Human topoisomerase IIα) [%] | MIC [1, 6] [µg/mL] | MIC [1, 7] [µM] | MIC (E. coli D22; D22, read-out: MIC E. coli D2) [µM] | MIC (E. coli D22; D22, read-out: MIC E. coli D22) [µg/mL] | MIC (Klebsiella pneumoniae; read-out: MIC K. pneumoniae) [µM] | MIC (Klebsiella pneumoniae; [8]) [µg/mL] | MIC (MRSA (QA-11.7)) | MIC [2, 9] [µM] | MIC [2, 10] [µg/mL] | MIC (MRSA (QA-12.1)) | MIC (E. coli (ATCC 25922)) | MIC (S. aureus (ATCC 29213)) | MIC [3, 11] [µM] | MIC [3, 12] [µg/mL] | MIC [4, 13] [µM] | MIC [4, 14] [µg/mL] | MIC [5, 15] [µM] | MIC [5, 16] [µg/mL] | IC50 (S. aureus DNA gyrase) [nM]
1 | COc1ccc2nccc(CCN3CCC(NCc4ccc(Cl)c(F)c4)CC3)c2n1 [Compound 4] | 99.2 ± 0.52 | 0.062 | 0.145 | 0.583 | 0.25 | 74.6 | 32 | 0.072 µM and 0.031 µg/mL | 149 | 64 | 0.072 µM and 0.031 µg/mL | 4.66 µM and 2 µg/mL | 0.072 µM and 0.031 µg/mL | 2.33 | 1 | 18.7 | 8 | 4.66 | 2 | 6 ± 1
2 | COc1ccc2nccc(CCN3CCC(NCc4ccc(Br)c(F)c4)CC3)c2n1 [Compound 5] | 98.46 ± 0.45 | 0.031 | 0.065 | 0.131 | 0.062 | 33.8 | 16 | 0.034 µM and 0.016 µg/mL | 67.6 | 32 | 0.065 µM and 0.031 µg/mL | 2.11 µM and 1 µg/mL | 0.017 µM and 0.008 µg/mL | 4.22 | 2 | 8.45 | 4 | 1.06 | 0.5 | 7
3 | COc1ccc2nccc(CCN3CCC(NCc4cc(F)c(Cl)c(F)c4)CC3)c2n1 [Compound 7] | 99.43 ± 0.57 | 0.062 | 0.139 | 0.069 | 0.031 | 17.9 | 8 | 0.069 µM and 0.031 µg/mL | 35.8 | 16 | 0.069 µM and 0.031 µg/mL | 1.12 µM and 0.5 µg/mL | 0.018 µM and 0.008 µg/mL | 1.12 | 0.5 | 4.47 | 2 | 1.12 | 0.5 | 14 ± 2
4 | COc1ccc2nccc(CCN3CCC(NCc4cc(F)c(Br)cc4F)CC3)c2n1 [Compound 9] | 98.83 ± 0.11 | 0.062 | 0.126 | 0.509 | 0.25 | 130 | 64 | 0.033 µM and 0.016 µg/mL | 260 | 128 | 0.033 µM and 0.016 µg/mL | 2.04 µM and 1 µg/mL | 0.016 µM and 0.008 µg/mL | 0.509 | 0.25 | 32.6 | 16 | 1.02 | 0.5 | 9 ± 1
5 | COc1ccc2nccc(CCN3CCC(NCc4ccc(Br)c(F)c4F)CC3)c2n1 [Compound 10] | 98.11 ± 0.91 | 0.125 | 0.254 | 1.02 | 0.5 | 130 | 64 | 0.126 µM and 0.062 µg/mL | > 260 | > 128 | 0.126 µM and 0.062 µg/mL | 8.14 µM and 4 µg/mL | 0.063 µM and 0.031 µg/mL | 4.07 | 2 | 32.6 | 16 | 4.07 | 2 | 9
6 | COc1ccc2nccc(CCN3CCC(NCc4ccc(I)c(F)c4F)CC3)c2n1 [Compound 11] | 94.9 ± 5.67 | 0.031 | 0.058 | 0.23 | 0.125 | 59.4 | 32 | 0.058 µM and 0.031 µg/mL | 119 | 64 | 0.115 µM and 0.062 µg/mL | 3.71 µM and 2 µg/mL | 0.015 µM and 0.008 µg/mL | 0.929 | 0.5 | 14.9 | 8 | 0.929 | 0.5 | 9 ± 1
7 | COc1ccc2nccc(CCN3CCC(NCc4ccc(Cl)nc4)CC3)c2n1 [Compound 12] | 99.7 ± 1.48 | 8 | 19.4 | 9.71 | 4 | > 311 | > 128 | 2.43 µM and 1 µg/mL | > 311 | > 128 | 4.86 µM and 2 µg/mL | 77.7 µM and 32 µg/mL | 2.43 µM and 1 µg/mL | 155 | 64 | > 311 | > 128 | 77.7 | 32 | 283 ± 9
8 | O=c1ccc2ncc(=O)n3c2n1C[C@H]3CN1CCC(NCc2cc3c(cn2)OCCC3)CC1 [Gepotidacin, gepotidacin, reference compound] | – | 0.016 | 0.036 | 0.279 | – | 17.8 | 8 | 0.138 µM and 0.062 µg/mL | 17.8 | 8 | 0.279 µM and 0.125 µg/mL | 2.23 µM and 1 µg/mL | 0.279 µM (≈ 0.125 µg/mL) | – | – | 8.92 | 4 | – | – | –
